Measured values reported in ChEMBL document CHEMBL5537115, “New broad-spectrum and potent antibacterial agents with dual-targeting mechanism: Promoting FtsZ polymerization and disrupting bacterial membranes” (Eur J Med Chem, 2024).
Activity calls are given as the source filed them. No cut-off for these calls is given here.

Tests used:
[1] = system: Staphylococcus aureus; assay: Selectivity ratio of MBC for Staphylococcus aureus clinical isolate to MIC for Staphylococcus aureus clinical isolate; format: functional
[2] = system: Staphylococcus aureus; assay: Antibacterial activity against erythromycin-susceptible Staphylococcus aureus ATCC25923 assessed as bacterial growth inhibition incubated for 20 hrs by CLSI based broth microdilution method; format: functional
[3] = target: T1, Cell division protein FtsZ (Bacillus subtilis) (UniProt A5Z1V5); assay: Induction of FtsZ polymerization in Bacillus subtilis preincubated for 10 mins followed by GTP addition measured upto 30 mins by absorbance based assay; conditions: dose 2.5-10 µg/ml, time 40.0 min
T1 sequence (whole entry): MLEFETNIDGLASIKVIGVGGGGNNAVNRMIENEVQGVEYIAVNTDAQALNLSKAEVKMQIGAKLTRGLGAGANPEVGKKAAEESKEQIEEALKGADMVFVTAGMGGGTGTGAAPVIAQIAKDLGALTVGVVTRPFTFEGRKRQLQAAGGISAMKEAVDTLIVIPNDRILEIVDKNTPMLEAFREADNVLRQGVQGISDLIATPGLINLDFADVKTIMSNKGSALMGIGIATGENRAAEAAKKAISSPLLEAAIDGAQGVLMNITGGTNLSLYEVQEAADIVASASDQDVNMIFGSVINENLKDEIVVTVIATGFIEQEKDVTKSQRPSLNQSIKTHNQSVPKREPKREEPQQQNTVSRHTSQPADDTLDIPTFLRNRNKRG

[4] = system: Acinetobacter baumannii; assay: Selectivity ratio of MBC for Acinetobacter baumannii ATCC19606 to MIC for Acinetobacter baumannii ATCC19606; format: functional
[5] = target: T1, Cell division protein FtsZ (Bacillus subtilis); assay: Induction of FtsZ polymerization in Bacillus subtilis at 2.5 to 10 ug/ml preincubated with compound followed by GTP addition by absorbance based assay; conditions: dose 2.5-10 µg/ml, time 40.0 min, TDE = time-dependent effect
[6] = system: Bacillus subtilis; assay: Antibacterial activity against penicillin-susceptible Bacillus subtilis ATCC9372 incubated for 18 to 24 hrs; format: functional; conditions: time 18-24 hrs
[7] = system: Staphylococcus aureus; assay: Inhibition of biofilm formation of Staphylococcus aureus ATCC25923 at 0.5 ug/ml incubated for 20 hrs by crystal violet staining based analysis relative to control; format: functional
[8] = system: Staphylococcus aureus; assay: Antibacterial activity against erythromycin-susceptible Staphylococcus aureus ATCC25923 incubated for 18 to 24 hrs; format: functional; conditions: time 18-24 hrs
[9] = system: Staphylococcus aureus; assay: Antibacterial activity against penicillin-resistant Staphylococcus aureus ATCC31007 assessed as bacterial growth inhibition incubated for 20 hrs by CLSI based broth microdilution method; format: functional
[10] = system: Staphylococcus aureus; assay: Induction of membrane potential depolarization in Staphylococcus aureus ATCC25923 measured after 20 mins by diSC35 dye based spectroscopy; format: functional, organism-based
[11] = system: Enterococcus faecalis; assay: Antibacterial activity against vancomycin-resistant Enterococcus faecalis ATCC51299 assessed as bacterial growth inhibition incubated for 20 hrs by CLSI based broth microdilution method; format: functional
[12] = system: Bacillus subtilis; assay: Antibacterial activity against penicillin-susceptible Bacillus subtilis ATCC9372 assessed as bacterial growth inhibition incubated for 20 hrs by CLSI based broth microdilution method; format: functional
[13] = system: Staphylococcus aureus; assay: Antibacterial activity against Staphylococcus aureus clinical isolate incubated for 18 to 24 hrs; format: functional; conditions: time 18-24 hrs
[14] = system: Enterococcus faecium; assay: Antibacterial activity against vancomycin-susceptible Enterococcus faecium ATCC19434 assessed as bacterial growth inhibition incubated for 20 hrs by CLSI based broth microdilution method; format: functional
[15] = system: Streptococcus pyogenes; assay: Antibacterial activity against erythromycin-resistant Streptococcus pyogenes 2 clinical isolate assessed as bacterial growth inhibition incubated for 20 hrs by CLSI based broth microdilution method; format: functional
[16] = system: Streptococcus pyogenes; assay: Antibacterial activity against erythromycin-susceptible Streptococcus pyogenes 1 assessed as bacterial growth inhibition incubated for 20 hrs by CLSI based broth microdilution method; format: functional
[17] = system: Enterococcus faecium; assay: Antibacterial activity against vancomycin-resistant Enterococcus faecium ATCC51559 assessed as bacterial growth inhibition incubated for 20 hrs by CLSI based broth microdilution method; format: functional
[18] = system: Staphylococcus aureus; assay: Induction of morphological change in Staphylococcus aureus ATCC25923 assessed as leakage of cell contents at 16 times MIC incubated for 2 hrs by TEM analysis; format: functional, organism-based
[19] = system: Staphylococcus aureus; assay: Induction of morphological change in Staphylococcus aureus ATCC25923 assessed as loss of bacterial membrane integrity at 16 times MIC incubated for 2 hrs by TEM analysis; format: functional, organism-based
[20] = system: Staphylococcus aureus; assay: Antibacterial activity against methicillin-resistant Staphylococcus aureus ATCC43300 assessed as bacterial growth inhibition incubated for 20 hrs by CLSI based broth microdilution method; format: functional
[21] = Hemolytic activity in mouse erythrocytes at 128 ug/ml incubated for 1 hr by absorbance based assay; format: toxicity, cell-based, Erythrocyte; conditions: dose 128 µg/ml, read-out: Activity
[22] = system: Escherichia coli; assay: Antibacterial activity against penicillin-susceptible Escherichia coli ATCC25922 assessed as bacterial growth inhibition incubated for 20 hrs by CLSI based broth microdilution method; format: functional
[23] = system: Escherichia coli; assay: Antibacterial activity against wild-type Escherichia coli BW25113 assessed as bacterial growth inhibition incubated for 20 hrs by CLSI based broth microdilution method; format: functional
[24] = system: Staphylococcus aureus; assay: Induction of resistance development in Staphylococcus aureus ATCC25923 assessed as fold increase in MIC at 0.5 times MIC measured after 32 days by multi-passage resistance assay relative to control; format: functional; conditions: time 32.0 day
[25] = target: T1, Cell division protein FtsZ (Bacillus subtilis); assay: Induction of FtsZ polymerization in Bacillus subtilis assessed as bundling of FtsZ protofilaments at 10 ug/ml preincubated for 15 mins followed by GTP addition measured after 10 mins by TEM analysis; conditions: dose 10.0 µg/ml, time 25.0 min
[26] = system: Bacillus pumilus; assay: Antibacterial activity against penicillin-susceptible Bacillus pumilus CMCC63202 assessed as bacterial growth inhibition incubated for 20 hrs by CLSI based broth microdilution method; format: functional
[27] = system: Acinetobacter baumannii; assay: Antibacterial activity against Acinetobacter baumannii ATCC19606 assessed as bacterial growth inhibition incubated for 20 hrs by CLSI based broth microdilution method; format: functional
[28] = system: Enterococcus faecalis; assay: Antibacterial activity against vancomycin-susceptible Enterococcus faecalis ATCC29212 assessed as bacterial growth inhibition incubated for 20 hrs by CLSI based broth microdilution method; format: functional
[29] = system: Klebsiella pneumoniae; assay: Antibacterial activity against Klebsiella pneumoniae ATCC BAA-1902 assessed as bacterial growth inhibition incubated for 20 hrs by CLSI based broth microdilution method; format: functional
[30] = system: Staphylococcus aureus; assay: Inhibition of biofilm formation of Staphylococcus aureus ATCC25923 incubated for 20 hrs by crystal violet staining based analysis; format: functional, organism-based
[31] = system: Staphylococcus aureus; assay: Disruption of inner membrane in Staphylococcus aureus ATCC25923 by PI staining based analysis; format: functional, organism-based; conditions: time 12.0 min, TDE = time-dependent effect
[32] = system: Bacillus subtilis; assay: Induction of morphological change in Bacillus subtilis ATCC9372 assessed as increase in cell length at 0.5 times MIC by phase contrast microscopy; format: functional, organism-based
[33] = system: Staphylococcus epidermidis; assay: Antibacterial activity against penicillin-resistant Staphylococcus epidermidis clinical isolate assessed as bacterial growth inhibition incubated for 20 hrs by CLSI based broth microdilution method; format: functional
[34] = system: Staphylococcus aureus; assay: Antibacterial activity against methicillin-resistant Staphylococcus aureus ATCC43300 incubated for 18 to 20 hrs; format: functional; conditions: time 18-20 hrs
[35] = system: Bacillus subtilis; assay: Selectivity ratio of MBC for penicillin-susceptible Bacillus subtilis ATCC9372 to MIC for penicillin-susceptible Bacillus subtilis ATCC9372; format: functional
[36] = system: Staphylococcus aureus; assay: Selectivity ratio of MBC for erythromycin-susceptible Staphylococcus aureus ATCC25923 to MIC for erythromycin-susceptible Staphylococcus aureus ATCC25923; format: functional
[37] = system: Acinetobacter baumannii; assay: Antibacterial activity against Acinetobacter baumannii ATCC19606 incubated for 18 to 24 hrs; format: functional; conditions: time 18-24 hrs
[38] = system: Staphylococcus aureus; assay: Antibacterial activity against Staphylococcus aureus clinical isolate assessed as bacterial growth inhibition incubated for 20 hrs by CLSI based broth microdilution method; format: functional
[39] = system: Staphylococcus aureus; assay: Disruption of inner membrane in Staphylococcus aureus ATCC25923 measured after 12 mins by PI staining based analysis; format: functional, organism-based
[40] = system: Staphylococcus aureus; assay: Selectivity ratio of MBC for methicillin-resistant Staphylococcus aureus ATCC43300 to MIC for methicillin-resistant Staphylococcus aureus ATCC43300; format: functional
[41] = Hemolytic activity in mouse erythrocytes at 16 ug/ml incubated for 1 hr by absorbance based assay; format: toxicity, cell-based, Erythrocyte; conditions: at 16 µg/mL, read-out: Activity
[42] = Hemolytic activity in mouse erythrocytes at 32 ug/ml incubated for 1 hr by absorbance based assay; format: toxicity, cell-based, Erythrocyte; conditions: at 32 µg/mL, read-out: Activity

For Cc1ccccc1-c1c[n+](C)c(-c2ccc(C(C)(C)C)cc2)cc1/C=C/c1ccc(O)cc1.[I-], the Ratio [1] was 8, the MIC [2] was 0.062 µg/mL and the Activity [3] was “Dose-Dependent Effect”. For the same compound, the Ratio [4] was 4, the Activity [5] was “Tde” and the MBC [6] was 2 µg/mL. The inhibition at 0.5 µg/mL [7] was 39%, the MBC [8] was 2 µg/mL and the MIC [9] was 1 µg/mL. The Activity [10] was “Dose-Dependent Effect”, the MIC [11] was 2 µg/mL and the MIC [12] was 0.5 µg/mL. The MBC [13] was 4 µg/mL, the MIC [14] was 2 µg/mL and the MIC [15] was 2 µg/mL. For the same compound, the MIC [16] was 1 µg/mL, the MIC [17] was 2 µg/mL and the Activity [18] was “Active”. For the same compound, the Activity [19] was “Active”, the MIC [20] was 0.125 µg/mL and the hemolysis at 1 h, 128 ug/ml [21] was 7.59%. For the same compound, the MIC [22] was 32 µg/mL, the MIC [23] was over 64 µg/mL and the fold change (FC) [24] was 2. The Activity [25] was “Active”, the MIC [26] was 1 µg/mL and the MIC [27] was 4 µg/mL. For the same compound, the MIC [28] was 2 µg/mL, the MIC [29] was over 64 µg/mL and the inhibition [30] was “Dose-Dependent Effect”. The Activity [31] was “Tde”, the Activity [32] was “Active” and the MIC [33] was 2 µg/mL. For the same compound, the MBC [34] was 2 µg/mL, the Ratio [35] was 4 and the Ratio [36] was 32. For the same compound, the MBC [37] was 16 µg/mL, the MIC [38] was 0.125 µg/mL and the Activity [39] was “Dose-Dependent Effect”. It also gave a Ratio [40] of 16.

C[n+]1cc(-c2ccccc2)c(/C=C/c2ccc(N3CCCC3)cc2)cc1-c1ccc(C(C)(C)C)cc1.[I-] gave a Ratio [1] of 1, a hemolysis at 1 h, 16 ug/ml [41] of 4.65% and a hemolysis at 1 h, 32 ug/ml [42] of 13.7%. The MIC [2] was 0.062 µg/mL, the Activity [3] was “Dose-Dependent Effect” and the Ratio [4] was 2. For the same compound, the Activity [5] was “Tde”, the MBC [6] was 0.5 µg/mL and the inhibition at 0.5 µg/mL [7] was 59.1%. For the same compound, the MBC [8] was 1 µg/mL, the MIC [9] was 0.25 µg/mL and the Activity [10] was “Dose-Dependent Effect”. For the same compound, the MIC [11] was 2 µg/mL, the MIC [12] was 0.5 µg/mL and the MBC [13] was 0.5 µg/mL. It also gave an MIC [14] of 2 µg/mL, an MIC [15] of 1 µg/mL and an MIC [16] of 0.5 µg/mL. The MIC [17] was 2 µg/mL, the Activity [18] was “Active” and the Activity [19] was “Active”. The MIC [20] was 0.5 µg/mL, the MIC [22] was 8 µg/mL and the MIC [23] was 8 µg/mL. The fold change (FC) [24] was 2, the Activity [25] was “Active” and the MIC [26] was 0.062 µg/mL. The MIC [27] was 1 µg/mL, the MIC [28] was 0.5 µg/mL and the MIC [29] was 16 µg/mL. For the same compound, the inhibition [30] was “Dose-Dependent Effect”, the Activity [31] was “Tde” and the Activity [32] was “Active”. The MIC [33] was 1 µg/mL, the MBC [34] was 1 µg/mL and the Ratio [35] was 1. For the same compound, the Ratio [36] was 8, the MBC [37] was 2 µg/mL and the MIC [38] was 0.5 µg/mL. For the same compound, the Activity [39] was “Dose-Dependent Effect” and the Ratio [40] was 2.
